Patent publication US20110230493A1, “1-OXA-8-Azaspiro [4,5] Decabe-8-Carboxamide Compounds as FAAH Inhibitors” (Pfizer Inc., priority 2008, published 2011)

How the values were obtained:
rat FAAH = target: T1, rat FAAH (Rattus norvegicus, UniProt P97612); test: FAAH assay, rat FAAH enzyme inactivation (kinact/Ki); type: biochemical; conditions: oleamide 50 μM, 30° C.; for kinact/KI: pH 7.4, in vitro, read-out: rFAAH kinact/Ki; for rFAAH kinact/Ki: in vitro, pH 7.4
T1 construct: made in house; host or cells: E. coli
T1 sequence (P97612 1-579): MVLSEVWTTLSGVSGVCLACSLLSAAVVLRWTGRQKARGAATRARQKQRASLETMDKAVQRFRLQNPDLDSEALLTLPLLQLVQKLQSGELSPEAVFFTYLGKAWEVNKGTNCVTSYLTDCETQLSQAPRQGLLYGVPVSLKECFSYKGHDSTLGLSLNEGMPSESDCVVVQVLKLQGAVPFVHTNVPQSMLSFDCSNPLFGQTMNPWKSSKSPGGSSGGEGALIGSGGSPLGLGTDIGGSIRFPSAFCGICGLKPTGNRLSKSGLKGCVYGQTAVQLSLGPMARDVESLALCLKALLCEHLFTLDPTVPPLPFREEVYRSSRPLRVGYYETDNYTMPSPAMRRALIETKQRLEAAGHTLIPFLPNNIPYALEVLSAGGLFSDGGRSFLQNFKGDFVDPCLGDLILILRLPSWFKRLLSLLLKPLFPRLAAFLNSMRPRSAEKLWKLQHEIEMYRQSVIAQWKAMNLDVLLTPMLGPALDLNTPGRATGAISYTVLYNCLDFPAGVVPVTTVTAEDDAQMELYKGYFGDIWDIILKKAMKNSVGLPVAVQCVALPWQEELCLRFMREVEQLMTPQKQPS
Description: (§1) The FAAH assay was carried out in 384-well clear polystyrene plates (Evergreen Scientific) in a total volume of 50 μl per well in a manner similar to that described by Mileni et al., Proc. Nat. Acad. Sci. 2008, 105, 12820-12824. All percents are by volume. Serial dilutions of compound were initially prepared in 100% DMSO, and then diluted two-fold into HPLC-grade H2O to give 50% DMSO. To each well, was placed the reaction mixture (40 μl) containing 1-4 nM FAAH, 50 mM NaPi, pH 7.4, 3 mM α-ketoglutarate, 0.15 mM NADH, 7.5 U/ml glutamate dehydrogenase, 2 mM ADP, 1 mM EDTA, and 0.1% Triton X-100 (The concentration shown for each component is the final concentration in the assay). To this mixture, was added 5 μl of a compound of Examples 1 to 101 at various concentrations in 50% DMSO (or 5 μl 50% DMSO for controls). This was immediately followed by the addition of 5 μl oleamide (500 μM) dissolved in 75% EtOH/25% DMSO and the reaction mixture was mixed for 1.5 min. The final concentrations of DMSO and EtOH in the assay were each 7.5%. The reactions were incubated at 30° C. and the absorbance at 340 nm was collected over a period of 90 min with readings taken in 30-second intervals using SpectraMax Plus^384 Microplate Spectrophotometer (Molecular Devices, Sunnyvale, Calif.). The human FAAH and rat FAAH used in the assay was prepared as described in the patent application WO 2006/067613 using wild-type E. coli cells transformed in St. Louis, Mo., U.S.A. The purity of the enzyme was greater than 98% based on an analysis by SDS-polyacrylamide gel electrophoresis followed by Coomassie Blue staining.
(§2) Reaction progress curves were corrected for the non-enzymatic oxidation of NADH by subtraction of absorbancies at each time point obtained from control reactions containing no FAAH enzyme. The loss of enzyme activity as a function of time is well-described by the following mathematical equation (1) for a mono-exponential decay: […]
(§3) where At represents the absorbance at time t, A0 represents the absorbance at time zero, and C represents a constant. Observed rates of enzyme inactivation (kobs) were determined from the non-linear reaction progress curves by fitting the corrected absorbancies to an equation for a mono-exponential decay using the third-party Microsoft Excel plug-in, XLfit (IDBS Limited). Secondary plots of kobs vs. inhibitor concentration were prepared from kobs values obtained from progress curves. Second-order rates for enzyme inactivation, expressed as kinact/Ki (M^−1 s^−1), were calculated from the slopes from linear regression analysis of the secondary plot of kobs vs. inhibitor concentration as defined in following equation (2), where [I]<<Ki:
(§4) The concentration of substrate in the assay was equal to the Km for oleamide of 50 μM. Therefore, reported kinact/Ki values are obtained by multiplying resulting slopes by a factor of two (i.e. slope=kinact/(Ki*2)).
(§5) Table 1, below, lists human FAAH (hFAAH) and rat FAAH (rFAAH) enzyme inhibition values for Examples 1-101 as a ratio of kinact/Ki (M^−1 s^−1).

human FAAH = target: T2, human FAAH (Homo sapiens, UniProt O00519); test: FAAH assay, human FAAH enzyme inactivation (kinact/Ki); type: biochemical; conditions: oleamide 50 μM, 30° C.; for kinact/KI: pH 7.4, in vitro, read-out: hFAAH kinact/Ki; for hFAAH kinact/Ki: in vitro, pH 7.4
T2 construct: made in house; host or cells: E. coli
T2 sequence (O00519 1-579): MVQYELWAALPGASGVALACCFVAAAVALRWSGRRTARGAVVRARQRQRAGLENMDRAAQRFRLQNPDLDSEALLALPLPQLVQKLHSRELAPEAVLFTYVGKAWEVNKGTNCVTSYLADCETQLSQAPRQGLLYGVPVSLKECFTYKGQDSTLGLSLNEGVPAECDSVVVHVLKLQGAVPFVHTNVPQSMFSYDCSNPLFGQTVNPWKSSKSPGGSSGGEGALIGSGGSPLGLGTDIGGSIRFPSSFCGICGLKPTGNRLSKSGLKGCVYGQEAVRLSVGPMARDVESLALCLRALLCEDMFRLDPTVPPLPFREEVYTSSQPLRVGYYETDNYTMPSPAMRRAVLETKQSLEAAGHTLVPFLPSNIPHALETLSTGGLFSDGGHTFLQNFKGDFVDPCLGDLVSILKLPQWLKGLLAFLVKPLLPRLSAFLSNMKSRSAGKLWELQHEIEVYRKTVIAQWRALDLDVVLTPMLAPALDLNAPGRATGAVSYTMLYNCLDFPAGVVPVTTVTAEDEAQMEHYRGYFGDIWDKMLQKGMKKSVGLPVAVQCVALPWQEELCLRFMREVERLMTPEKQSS
Description: as §1, §2, §3, §4, §5

Row | SMILES | kinact/KI (rat FAAH) [M⁻¹ s⁻¹] | kinact/KI (human FAAH) [M⁻¹ s⁻¹] | rFAAH kinact/Ki (rat FAAH) [M⁻¹ s⁻¹] | hFAAH kinact/Ki (human FAAH) [M⁻¹ s⁻¹]
1 | Cc1noc(NC(=O)N2CCC3(CC2)CC(c2noc(-c4ccc(C(F)(F)F)cc4)n2)CO3)c1C (racemic) [Example 74, (3RS)—N-(3,4-dimethylisoxazol-5-yl)-3-{5-[4-(trifluoromethyl)phenyl]-1,2,4-oxadiazol-3-yl}-1-oxa-8-azaspiro[4.5]decane-8-carboxamide] | 1140 | 2380 |  | 
2 | Cc1noc(NC(=O)N2CCC3(CC2)CC(c2ccc(Cl)c(Cl)c2)CO3)c1C (single isomer, unassigned) [Example 38, 3-(3,4-dichlorophenyl)-N-(3,4-dimethylisoxazol-5-yl)-1-oxa-8-azaspiro[4.5]decane-8-carboxamide] |  |  | 2380 | 2050
3 | Cc1noc(NC(=O)N2CCC3(CC2)CC(c2cc(F)cc(Cl)c2)CO3)c1C (single isomer, unassigned) [Example 40, 3-(3-chloro-5-fluorophenyl)-N-(3,4-dimethylisoxazol-5-yl)-1-oxa-8-azaspiro[4.5]decane-8-carboxamide] |  |  | 3740 | 2470
4 | Cc1noc(NC(=O)N2CCC3(CC2)CC(c2cccc(C(F)(F)F)c2)CO3)c1C (single isomer, unassigned) [Example 66, N-(3,4-dimethylisoxazol-5-yl)-3-[3-(trifluoromethyl)phenyl]-1-oxa-8-azaspiro[4.5]decane-8-carboxamide] | 2920 | 2140 |  | 
5 | Cc1noc(NC(=O)N2CCC3(CC2)CC(c2cccc(C(F)(F)F)c2)CO3)c1C (single isomer, unassigned) [Example 67, N-(3,4-dimethylisoxazol-5-yl)-3-[3-(trifluoromethyl)phenyl]-1-oxa-8-azaspiro[4.5]decane-8-carboxamide] |  |  | 2680 | 1330
6 | CCCc1noc(NC(=O)N2CCC3(CC2)CC(c2ccc(Cl)c(Cl)c2)CO3)c1C (single isomer, unassigned) [Example 69, 3-(3,4-dichlorophenyl)-N-(3-n-propyl-4-methylisoxazol-5-yl)-1-oxa-8-azaspiro[4.5]decane-8-carboxamide] | 4880 | 960 |  | 
7 | Cc1nnc(NC(=O)N2CCC3(CC2)CC(c2cccc(OC(F)(F)F)c2)CO3)o1 (single isomer, unassigned) [Example 70, N-(5-methyl-1,3,4-oxadiazol-2-yl)-3-[3-(trifluoromethoxy)phenyl]-1-oxa-8-azaspiro[4.5]decane-8-carboxamide] | 2390 | 2110 |  | 
8 | Cc1noc(NC(=O)N2CCC3(CC2)C[C@H](c2cccc(-c4ccc(F)c(F)c4)c2)CO3)c1C [Example 58, (3R)-3-(3′,4′-difluorobiphenyl-3-yl)-N-(3,4-dimethylisoxazol-5-yl)-1-oxa-8-azaspiro[4.5]decane-8-carboxamide] | 707 | 2780 |  | 
9 | Cc1noc(NC(=O)N2CCC3(CC2)C[C@H](c2cccc(-c4ccc(OC(F)(F)F)cc4)c2)CO3)c1C [Example 64, (3R)—N-(3,4-dimethylisoxazol-5-yl)-3-[4′-(trifluoromethoxy)biphenyl-3-yl]-1-oxa-8-azaspiro[4.5]decane-8-carboxamide] | 588 | 1490 |  | 

Further lines, results first:

Row | kinact/KI (rat FAAH) [M⁻¹ s⁻¹] | kinact/KI (human FAAH) [M⁻¹ s⁻¹] | rFAAH kinact/Ki (rat FAAH) [M⁻¹ s⁻¹] | hFAAH kinact/Ki (human FAAH) [M⁻¹ s⁻¹] | SMILES
10 | 3120 | 5240 |  |  | Cn1nnnc1NC(=O)N1CCC2(CC1)CC(c1cccc(C(F)(F)F)c1)CO2 (racemic) [Example 92]
11 | 1120 | 871 |  |  | Cc1noc(NC(=O)N2CCC3(CC2)CC(F)(c2cc(F)cc(Cl)c2)CO3)c1C (racemic) [Example 100, (3RS)-3-(3-chloro-5-fluorophenyl)-N-(3,4-dimethylisoxazol-5-yl)-3-fluoro-1-oxa-8-azaspiro[4.5]decane-8-carboxamide]
12 | 8330 | 1780 |  |  | O=C(Nc1noc2ccccc12)N1CCC2(CC1)CC(c1cccc(Oc3ccc(Cl)cn3)c1)CO2 (racemic) [Example 101, (3RS)—N-1,2-benzisoxazol-3-yl-3-{3-[(5-chloropyridin-2-yl)oxy]phenyl}-1-oxa-8-azaspiro[4.5]decane-8-carboxamide]
13 | 11200 | 28400 |  |  | Cn1nnnc1NC(=O)N1CCC2(CC1)C[C@H](c1ccc(OCc3cccc(F)c3)cc1)CO2 [Example 86, (3R)-3-{4-[(3-fluorobenzyl)oxy]phenyl}-N-(1-methyl-1H-tetrazol-5-yl)-1-oxa-8-azaspiro[4.5]decane-8-carboxamide]
14 | 1630 | 2820 |  |  | Cc1noc(NC(=O)N2CCC3(CC2)C[C@H](c2cccc(-c4ccc(C(F)(F)F)cn4)c2)CO3)c1C [Example 98, (3R)—N-(3,4-dimethylisoxazol-5-yl)-3-{3-[5-(trifluoromethyl)pyridin-2-yl]phenyl}-1-oxa-8-azaspiro[4.5]decane-8-carboxamide]
